Results: PubChem BioAssay (NCI)
Several values for one entry are separate records, joined by “and”; a condition that tells them apart may be missing. Identical values can stand only once.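 Each compound was tested at five concentrations against cells in 96-well plates for 48 hours. At the GI50, growth is halved. TGI is the concentration that stops growth completely.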

Each molecule was assayed on MDA-MB-468 breast (assay: NCI tumour cell line growth inhibition, 48 h).
`CC/C=C/[C@@H]1C=C[C@@H]2CCC[C@H]2[C@@H]1CC[C@H](O)[C@H](C)N` was tested, and the GI50 was 1.24 µM and the TGI was 2.69 µM.
In the case of `CCN1CCN(C(=O)[C@]23CC[C@@H](C)[C@H](C)[C@@H]2C2=CC[C@@H]4[C@@]5(C)C/C(=C/c6cccnc6)C(=O)C(C)(C)[C@@H]5CC[C@@]4(C)[C@]2(C)CC3)CC1`, the GI50 is reported as 1.65 µM and the TGI is reported as 3.43 µM.
Work on `COc1ccc(CN2CCc3c(Cl)nc(N)nc3C2=O)c(OC)c1` yielded a GI50 of 5.85 µM and a TGI of 33.1 µM.
With `CCOC(=O)c1cc2c(n1Cc1cccc(OC)c1)-c1oncc1CC2` the GI50 was 0.346 µM and the TGI was 2.49 µM.
Molecule `COC12C=C/C(=C(/C(=O)OCc3ccncn3)C(=O)CCCCCCCCC3(OC)C=C/C(=C(/C(=O)OCc4ccncn4)C(=O)CCCCCCCC1)O3)O2` has a GI50 of 0.239 µM and a TGI of 0.682 µM.
With `COc1ccccc1/C=C1\COc2ccc(O)c(O)c2C1=O` the GI50 was 1.24 µM and the TGI was 3.29 µM.
`Cc1cc2c(-c3nc4ccccc4[nH]3)c(O)c(O)cc2c(O)c1-c1c(C)cc2c(-c3nc4ccccc4[nH]3)c(O)c(O)cc2c1O` gave a GI50 of 0.02 µM and a TGI of 0.601 µM.
`CC[C@]1(O)C[C@@H]2CN(Cc3c([nH]c4ccccc34)[C@@](C(=O)OC)(c3cc4c(cc3OC)N(C)[C@H]3[C@@](O)(C(=O)OC)[C@H](OC(C)=O)[C@]5(CC)[C@@H]6C[C@@H]6CN6CC[C@]43[C@@H]65)C2)C1` showed a GI50 of 0.017 µM.
`CCOc1ccc([C@H]2C(C(=O)c3ccc(Cl)cc3)C3(N[C@@H]2c2ccccc2)C(=O)Nc2ccc(Br)cc23)cc1` (some centres undefined) was tested, and the GI50 was 16.6 µM and the TGI was 41.8 µM.
For `COc1cc([C@@H]2c3cc4c(cc3[C@H](OC3OC5COC(c6ccccc6)OC5C(O)C3O)[C@H]3COC(=O)[C@H]23)OCO4)cc(OC)c1OC` (some centres undefined), the GI50 was 0.472 µM and the TGI was 19.6 µM.
`CCOC(=O)c1cnc2ccc(Cl)cc2c1NCCCN(C)C` showed a GI50 of 16.2 µM and a TGI of 45.4 µM.
Work on `COc1c(O)c2ccccc2c2cc(O)ccc12` yielded a GI50 of 3.7 µM and a TGI of 15 µM.
Work on `COc1ccc([C@H]2c3cc(OC)c(OC)cc3C=C(C=O)C2CO)cc1OC` (some centres undefined) yielded a GI50 of 2.55 µM and a TGI of 25.1 µM.
With `O=C(Nc1ccc(Cl)c(Cl)c1)Nc1ccc(Cl)c([N+](=O)[O-])c1` the GI50 was 0.884 µM and the TGI was 3.52 µM.
With `CC/C(=C(\c1ccccc1)c1ccc(OCCN(C)C)cc1)c1ccccc1` the GI50 was 1.34 µM and 1.95 µM and 3.92 µM and the TGI was 6.48 µM and 5.44 µM and 7.97 µM.
With `CCc1nc(N)nc(N)c1-c1ccc(Cl)cc1` the GI50 was 11.4 µM and the TGI was > 100 µM.
With `O=C(Nc1ccccc1)c1cc2c(cc1Cl)Sc1nccn1S2(=O)=O` the GI50 was 5.47 µM and the TGI was 26.3 µM.
Molecule `CCN(CC)CCCCCCCCNc1c2ccc(Cl)cc2nc2ccc(OC)cc12` has a GI50 of 1.44 µM and a TGI of 2.77 µM.
With `COc1ccc(C(=O)c2cc3c(N)c(C(=O)Nc4cccc(Cl)c4)sc3nc2C)cc1` the GI50 was 0.859 µM and the TGI was 2.83 µM.
With `COc1cc[c]([Hg][Cl])cc1` the GI50 was 1.66 µM and the TGI was 3.35 µM.
In the case of `C#Cc1cccc(NC(=O)Nc2ccccc2NC(=O)CCl)c1`, the GI50 is reported as 16 µM and the TGI is reported as 39.3 µM.
`COc1ccc(/C=C2/SC(=Nc3c(C)nn(-c4ccccc4)c3N)NC2=O)cc1` gave a GI50 of 3.24 µM and a TGI of 12.4 µM.
With `COc1cc(-c2cc(-c3ccc(N(C)C)cc3)nc(N3CCC(O)CC3)c2C#N)cc(OC)c1OC` the GI50 was 1.11 µM and the TGI was 4.08 µM.
With `Cc1ncc(C(=O)Nc2ccc(CN3CCN(C)CC3)c(C(F)(F)F)c2)cc1C#Cc1c(N)ncc2ccc(C#N)cc12` the GI50 was 7.86 µM and the TGI was 28.1 µM.
`CCCCc1ccc2nc(NC(=O)OC)[nH]c2c1` showed a GI50 of 0.107 µM and a TGI of 1.6 µM.
`CC(C)(O)Cn1c(=O)c(Oc2ccc(F)cc2F)cc2cnc(NC3CCOCC3)nc21` was tested, and the GI50 was > 25 µM and the TGI was > 25 µM.
In the case of `CCN1CCC(C(=O)Nc2n[nH]c3nnc(-c4cccc(F)c4F)cc23)CC1`, the GI50 is reported as 2.32 µM and the TGI is reported as 6.78 µM.
For `CCOC(=O)c1c(NC(=O)c2ccc(C(F)(F)F)cc2)sc2c3c(ccc12)OCN(C)C3`, the GI50 was 1.56 µM and the TGI was 3.18 µM.
Work on `N#C/C(=C\c1ccc(-c2ccc(F)cc2)o1)C(=O)Nc1ncc(Cc2ccc(Cl)cc2Cl)s1` yielded a GI50 of 2.17 µM and a TGI of 5.01 µM.
With `O=c1ccc2nc(-c3ccccc3)nn(-c3ccccc3)c-2c1` the GI50 was 1.02 µM and the TGI was 2.4 µM.
`O=C(CCCCCCc1nc2ccc(Br)cc2[nH]1)NO` showed a GI50 of 0.248 µM and a TGI of 6.37 µM.
With `O=C1CCC/C=C\C[C@H]2C=C(Cl)C(=O)/C2=C/C[C@H](CCCCC(F)(F)F)OC(=O)CCC/C=C\C[C@H]2C=C(Cl)C(=O)/C2=C/C[C@H](CCCCC(F)(F)F)O1` the GI50 was 0.239 µM and the TGI was 0.721 µM.
`N#Cc1c(N)nn(C(=O)c2ccc(NC(=O)c3ccccn3)cc2)c1-c1ccc(Cl)cc1` showed a GI50 of 2.43 µM and a TGI of 6.64 µM.
For `CC(C)Oc1cc(OCC(=O)O)cc(C(=O)N(CCC(N)=O)C(=O)Nc2ccc(C(=O)O)cc2OC(C)C)c1`, the GI50 was > 100 µM and the TGI was > 100 µM.
For `Cc1cc(Cl)n2c(nc3ccccc32)c1C#N`, the GI50 was 0.394 µM and the TGI was 1.84 µM.
`C=C1C(=O)OC(CCCCCCCC)C1C(=O)O` (centres undefined) gave a GI50 of 5.61 µM and a TGI of 16.7 µM.
With `C=C1C(=O)O[C@@H]2[C@@H]3O[C@@](C)(CC/C=C(\C)CCC[C@@H]2C)[C@H](O)C[C@@H]13` the GI50 was 1.15 µM and the TGI was 2.8 µM.
In the case of `Cc1ccc(CCC(=O)Nc2ncc(Cc3cc(Cl)ccc3Cl)s2)o1`, the GI50 is reported as 0.266 µM and the TGI is reported as 20.7 µM.
`FC(F)(F)c1ccc2nc(-c3nc(-c4ccccc4)n4ccccc34)[nH]c2c1` was tested, and the GI50 was 2.02 µM and the TGI was 7.31 µM.
For `CCN(CC)CCn1c(=N)n(CC(O)c2ccc(Cl)c(Cl)c2)c2ccccc21` (centres undefined), the GI50 was 2.49 µM and the TGI was 8.09 µM.
`C(=N\Nc1ncc(-c2cc3cc4c(cc3o2)OCO4)s1)/c1c[nH]c2ccccc12` gave a GI50 of 1.01 µM and a TGI of 6.05 µM.
In the case of `COc1ccc(C(=O)CC2(O)C(=O)Nc3c(Cl)ccc(Cl)c32)cc1` (centres undefined), the GI50 is reported as 0.536 µM.
`CCc1cc(C(N)=O)ccc1-n1nc(C(C)C)c2c(-n3cnc(-c4cnn(C)c4)c3)ccnc21` was tested, and the GI50 was 0.821 µM and the TGI was > 22.2 µM.
